Laboratory results: PubChem BioAssay (NCI)
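GI50 marks 50% less growth. At the TGI there is no net growth.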

Key:
Experiment in all cases: NCI anticancer screen, dose series, 384-well format
786-0 renal = system: 786-0 renal
A498 renal = system: A498 renal
A549 NSCLC = system: A549 NSCLC
ACHN renal = system: ACHN renal
CAKI-1 renal = system: CAKI-1 renal
CCRF-CEM leukemia = system: CCRF-CEM leukemia
DU-145 prostate = system: DU-145 prostate
EKVX NSCLC = system: EKVX NSCLC
HCC-2998 colon = system: HCC-2998 colon
HCT-15 colon = system: HCT-15 colon
HOP-62 NSCLC = system: HOP-62 NSCLC
HOP-92 NSCLC = system: HOP-92 NSCLC
HS 578T breast = system: HS 578T breast
HT29 colon = system: HT29 colon
IGROV1 ovarian = system: IGROV1 ovarian
K-562 leukemia = system: K-562 leukemia
KM12 colon = system: KM12 colon
M14 melanoma = system: M14 melanoma
MCF7 breast = system: MCF7 breast
MDA-MB-231 breast = system: MDA-MB-231 breast
MDA-MB-435 melanoma = system: MDA-MB-435 melanoma
MDA-MB-468 breast = system: MDA-MB-468 breast
NCI-H226 lung = system: NCI-H226 lung
NCI-H23 lung = system: NCI-H23 lung
NCI-H460 NSCLC = system: NCI-H460 NSCLC
NCI-H522 lung = system: NCI-H522 lung
NCI/ADR-RES ovarian = system: NCI/ADR-RES ovarian
OVCAR-3 ovarian = system: OVCAR-3 ovarian
OVCAR-4 ovarian = system: OVCAR-4 ovarian
OVCAR-5 ovarian = system: OVCAR-5 ovarian
OVCAR-8 ovarian = system: OVCAR-8 ovarian
PC-3 prostate = system: PC-3 prostate
RPMI-8226 leukemia = system: RPMI-8226 leukemia
SF-268 CNS = system: SF-268 CNS
SF-295 CNS = system: SF-295 CNS
SK-MEL-2 melanoma = system: SK-MEL-2 melanoma
SK-MEL-28 melanoma = system: SK-MEL-28 melanoma
SK-OV-3 ovarian = system: SK-OV-3 ovarian
SN12C renal = system: SN12C renal
SNB-19 CNS = system: SNB-19 CNS
SNB-75 CNS = system: SNB-75 CNS
SR leukemia = system: SR leukemia
T-47D breast = system: T-47D breast
U251 glioblastoma = system: U251 glioblastoma
UACC-257 melanoma = system: UACC-257 melanoma
UACC-62 melanoma = system: UACC-62 melanoma
UO-31 renal = system: UO-31 renal

Cc1ccc2c(N)c(C(=O)N[C@H]3CCc4cc(N5CC6CCC(C5)N6)ccc4C3)sc2n1
GI50 ([…]-0 renal): 229 nM | TGI (786-0 renal): 997 nM | GI50 (A498 renal): 164 nM | TGI (A498 renal): 892 nM | GI50 (A549 NSCLC): 222 nM | TGI (A549 NSCLC): 1060 nM | GI50 (ACHN renal): 101 nM | TGI (ACHN renal): 707 nM | GI50 (CAKI-1 renal): 234 nM | TGI (CAKI-1 renal): 1110 nM | GI50 (CCRF-CEM leukemia): 42.3 nM | TGI (CCRF-CEM leukemia): 133 nM | GI50 (DU-145 prostate): 104 nM | TGI (DU-145 prostate): 605 nM | GI50 (EKVX NSCLC): 251 nM | TGI (EKVX NSCLC): 836 nM | GI50 (HCC-2998 colon): 246 nM | TGI (HCC-2998 colon): 751 nM | GI50 (HCT-15 colon): 260 nM | TGI (HCT-15 colon): 1030 nM | GI50 (HOP-62 NSCLC): 148 nM | TGI (HOP-62 NSCLC): 624 nM | GI50 (HOP-92 NSCLC): 373 nM | TGI (HOP-92 NSCLC): 1640 nM | GI50 (HS 578T breast): 180 nM | TGI (HS 578T breast): 543 nM | GI50 (HT29 colon): 386 nM | TGI (HT29 colon): 4350 nM | GI50 (IGROV1 ovarian): 300 nM | TGI (IGROV1 ovarian): 1120 nM | GI50 (K-562 leukemia): 74.5 nM | TGI (K-562 leukemia): 1080 nM | GI50 (KM12 colon): 228 nM | TGI (KM12 colon): 1200 nM | GI50 (M14 melanoma): 104 nM | TGI (M14 melanoma): 343 nM | GI50 (MCF7 breast): 94.9 nM | TGI (MCF7 breast): 1110 nM | GI50 (MDA-MB-231 breast): 219 nM | TGI (MDA-MB-231 breast): 972 nM | GI50 (MDA-MB-435 melanoma): 207 nM | TGI (MDA-MB-435 melanoma): 804 nM | GI50 (MDA-MB-468 breast): 206 nM | TGI (MDA-MB-468 breast): 691 nM | GI50 (NCI-H226 lung): 178 nM | TGI (NCI-H226 lung): 713 nM | GI50 (NCI-H23 lung): 211 nM | TGI (NCI-H23 lung): 594 nM | GI50 (NCI-H460 NSCLC): 66.1 nM | TGI (NCI-H460 NSCLC): 548 nM | GI50 (NCI-H522 lung): 174 nM | TGI (NCI-H522 lung): 487 nM | GI50 (NCI/ADR-RES ovarian): 326 nM | TGI (NCI/ADR-RES ovarian): 1190 nM | GI50 (OVCAR-3 ovarian): 129 nM | TGI (OVCAR-3 ovarian): 513 nM | GI50 (OVCAR-4 ovarian): 127 nM | TGI (OVCAR-4 ovarian): 460 nM | GI50 (OVCAR-5 ovarian): 277 nM | TGI (OVCAR-5 ovarian): 795 nM | GI50 (OVCAR-8 ovarian): 278 nM | TGI (OVCAR-8 ovarian): 1080 nM | GI50 (PC-3 prostate): 222 nM | TGI (PC-3 prostate): 989 nM | GI50 (RPMI-8226 leukemia): 66.4 nM | TGI (RPMI-8226 leukemia): 192 nM | GI50 (SF-268 CNS): 120 nM | TGI (SF-268 CNS): 501 nM | GI50 (SF-295 CNS): 335 nM | TGI (SF-295 CNS): 919 nM | GI50 (SK-MEL-2 melanoma): 121 nM | TGI (SK-MEL-2 melanoma): 421 nM | GI50 (SK-MEL-28 melanoma): 269 nM | TGI (SK-MEL-28 melanoma): 813 nM | GI50 (SK-OV-3 ovarian): 99 nM | TGI (SK-OV-3 ovarian): 940 nM | GI50 (SN12C renal): 124 nM | TGI (SN12C renal): 647 nM | GI50 (SNB-19 CNS): 293 nM | TGI (SNB-19 CNS): 2140 nM | GI50 (SNB-75 CNS): 219 nM | TGI (SNB-75 CNS): 682 nM | GI50 (SR leukemia): 161 nM | TGI (SR leukemia): 298 nM | GI50 (T-47D breast): 269 nM | TGI (T-47D breast): 992 nM | GI50 (U251 glioblastoma): 270 nM | TGI (U251 glioblastoma): 1030 nM | GI50 (UACC-257 melanoma): 194 nM | TGI (UACC-257 melanoma): 775 nM | GI50 (UACC-62 melanoma): 241 nM | TGI (UACC-62 melanoma): 811 nM | GI50 (UO-31 renal): 349 nM | TGI (UO-31 renal): 1270 nM
